Results taken from PMC2817922, “Inhibitory Activity of Marine Sponge-Derived Natural Products against Parasitic Protozoa” (Marine Drugs, 2010).
Converted amounts (≈) assume the structure as drawn. Read-outs that look alike come from different tables or passages of the source.

Key:
P. falciparum K1 strain = test: Activity against Plasmodium falciparum ([3H]-hypoxanthine incorporation); assay type: cell-based; details: for IC50: Plasmodium falciparum
Procedure: In vitro activity against erythrocytic stages of P. falciparum was determined by a modified [^3H]-hypoxanthine incorporation assay, using the chloroquine- and pyrimethamine-resistant K1 strain and the standard drug […]. Briefly, parasite cultures incubated in RPMI 1640 medium with 5% Albumax (without hypoxanthine) were exposed to serial drug dilutions in microtiter plates. After 48 h of incubation at 37°C in a reduced oxygen atmosphere, 0.5 μCi ^3H-hypoxanthine was added to each well. Cultures were incubated for a further 24 h before they were harvested onto glass-fiber filters and washed with distilled water. The radioactivity was counted using a Betaplate™ liquid scintillation counter (Wallac, Zurich). […] IC50 values were calculated from the sigmoidal inhibition curves using Microsoft Excel. Chloroquine was the reference drug used.

[1] = Cytotoxicity against L6 cells (Alamar Blue); assay type: cell-based, rat
Procedure: Assays were performed in 96-well microtiter plates, each well containing 100 μL of RPMI 1640 medium supplemented with 1% L-glutamine (200 mM) and 10% fetal bovine serum, and 4 × 10^4 L6 cells (a […] cell line derived from rat skeletal myoblasts). Serial drug dilutions of seven 3-fold dilution steps covering a range from 90 to 0.123 μg/mL were prepared. After 72 h of incubation, the plates were inspected under an inverted microscope to assure growth of the controls and sterile conditions. Ten μL of Alamar Blue solution was then added to each well and the plates incubated for another 2 h. Then the plates were read with a Spectramax Gemini XS microplate fluorometer using an excitation wavelength of 536 nm and an emission wavelength of 588 nm. Data were analysed using the microplate reader software Softmax Pro. Podophyllotoxin was the reference drug used.

[2] = test system: T. cruzi Tulahuen strain C2C4; test: Activity against Trypanosoma cruzi (intracellular amastigotes in L6 cells, beta-galactosidase/CPRG); assay type: cell-based; details: for IC50: Trypanosoma cruzi, TULAHUEN, Myoblast, in Rattus norvegicus, 96 h, intracellular amastigotes in L6 rat skeletal myoblasts, Tulahuen C2C4, 96 h
Procedure: Rat skeletal myoblasts (L6 cells) were seeded in 96-well microtitre plates at 2000 cells/well in 100 μL RPMI 1640 medium with 10% FBS and 2 mM L-glutamine. After 24 h the medium was removed and replaced by 100 μL per well containing 5000 trypomastigote forms of T. cruzi Tulahuen strain C2C4 containing the β-galactosidase (Lac Z) gene. After 48 h, the medium was removed from the wells and replaced by 100 μL fresh medium with or without a serial drug dilution of seven 3-fold dilution steps covering a range from 90 to 0.123 μg/mL. After 96 h of incubation, the plates were inspected under an inverted microscope to assure growth of the controls and sterility. Then, the substrate CPRG/Nonidet (50 μL) was added to all wells. A color reaction developed within 2–6 h and could be read photometrically at 540 nm. Data were transferred into the graphic programme Softmax Pro (Molecular Devices), which calculated IC50 values. Benznidazole was the reference drug used.

[3] = test system: L. donovani strain MHOM/ET/67/L82; test: Activity against Leishmania donovani axenic amastigotes (Alamar Blue); assay type: cell-based; details: for IC50: Leishmania donovani, axenic amastigotes, MHOM/ET/67/L82, 72 h
Procedure: Amastigotes of L. donovani strain MHOM/ET/67/L82 were grown in axenic culture at 37 °C in SM medium at pH 5.4 supplemented with 10% heat-inactivated fetal bovine serum under an atmosphere of 5% CO2 in air. One hundred microlitres of culture medium with 10^5 amastigotes from axenic culture with or without a serial drug dilution were seeded in 96-well microtitre plates. Serial drug dilutions covering a range from 90 to 0.123 μg/mL were prepared. After 72 h of incubation the plates were inspected under an inverted microscope to assure growth of the controls and sterile conditions. 10 μL of Alamar Blue (12.5 mg resazurin dissolved in 100 mL distilled water) were then added to each well and the plates incubated for another 2 h. Then, the plates were read with a Spectramax Gemini XS microplate fluorometer using an excitation wavelength of 536 nm and an emission wavelength of 588 nm. Data were analyzed using the software Softmax Pro (Molecular Devices Cooperation, Sunnyvale, CA, USA). Decrease of fluorescence (=inhibition) was expressed as percentage of the fluorescence of control cultures and plotted against the drug concentrations. From the sigmoidal inhibition curves the IC50 values were calculated. Miltefosine was used as reference drug.

[4] = test system: Trypanosoma brucei rhodesiense, STIB 900 strain; test: Activity against Trypanosoma brucei rhodesiense (Alamar Blue); assay type: cell-based; details: read-out: IC50 Trypanosoma b. rhodesiense
Procedure: Trypanosoma brucei rhodesiense, STIB 900 strain, and the standard drug, melarsoprol, were used for the assay. This stock was isolated in 1982 from a human patient in Tanzania and after several mouse passages cloned and adapted to axenic culture conditions. Minimum Essential Medium (50 μL) supplemented with 25 mM HEPES, 1g/L additional glucose, 1% MEM non-essential amino acids (100x), 0.2 mM 2-mercaptoethanol, 1 mM Na-pyruvate and 15% heat inactivated horse serum was added to each well of a 96-well microtiter plate. Serial drug dilutions of seven 3-fold dilution steps covering a range from 90 to 0.123 μg/mL were prepared. Then 10^4 bloodstream forms of T. b. rhodesiense STIB 900 in 50 μL was added to each well and the plate incubated at 37 °C under a 5% CO2 atmosphere for 72 h. 10 μL Alamar Blue (resazurin, 12.5 mg in 100 mL double-distilled water) was then added to each well and incubation continued for a further 2–4 h. Then, the plates were read with a Spectramax Gemini XS microplate fluorometer (Molecular Devices Cooperation, Sunnyvale, CA, USA) using an excitation wavelength of 536 nm and an emission wavelength of 588 nm. Data were analyzed using the microplate reader software Softmax Pro (Molecular Devices Cooperation, Sunnyvale, CA, USA).

[5] = K1, erythrocytic stages, K1 strain resistant to chloroquine and pyrimethamine, read-out: IC50 Plasmodium falciparum
[6] = bloodstream forms, STIB 900, 72 h, average of at least two independent assays in duplicates

| Structure (SMILES) | IC50 (P. falciparum K1 strain; [5]) [µg/mL] | IC50 at 72 h ([1]; rat) [µg/mL] | IC50 [2] [µg/mL] | IC50 [3] [µg/mL] | IC50 [4, 6] [µg/mL] | selectivity index (IC50 against L6 cells/IC50 against parasite) (P. falciparum K1 strain; towards the malaria parasite (P. falciparum)) | selectivity index (IC50 against L6 cells/IC50 against parasite) ([3]; for L. donovani) | fold less active against T. cruzi than against T. b. rhodesiense ([2]; ratio of IC50 values) [fold] | IC50 (P. falciparum K1 strain; K1, read-out: IC50 Plasmodium falciparum) [µg/mL] | IC50 ([4]; 72 h) [µg/mL] | IC50 at 72 h ([1]; L6 cells (rat skeletal myoblasts), 72 h, read-out: IC50 Cytotoxicity) [µg/mL] |
| --- | --- | --- | --- | --- | --- | --- | --- | --- | --- | --- | --- |
| CC(C)=CCC/C(C)=C/CC/C(C)=C/CC/C(C)=C/CCc1ccoc1 [Compound 1, furospinulosin-1] | 11.2 (≈ 31.5 µM) | > 90 | > 90 | 14.2 (≈ 40 µM) | 27.4 (≈ 77.4 µM) |  |  |  |  |  |  |
| CC(C)=CCC/C(C)=C/CC/C(C)=C/CC/C(C)=C/CC/C(C)=C/CCc1ccoc1 [Compound 2, furospinulosin-2] | 3.51 (≈ 8.3 µM) | 34 (≈ 80.4 µM) | > 90 | > 90 | 16.2 (≈ 38.2 µM) |  |  |  |  |  |  |
| C/C(=C\CCc1ccoc1)C[C@@H](O)C[C@@H](C)CCCc1ccoc1 [Compound 3, furospongin-1] | 14 (≈ 42.4 µM) | 27.4 (≈ 83.1 µM) | 17.5 (≈ 52.9 µM) | 4.8 (≈ 14.5 µM) | 13.9 (≈ 42.2 µM) |  |  |  |  |  |  |
| COC(=O)/C(C)=C/CC/C(=C/CC/C(C)=C/CC/C(C)=C/CCc1ccoc1)C(=O)O [Compound 4, furospongin-4] | 7.51 (≈ 17.5 µM) | > 90 | > 90 | > 90 | 17.9 (≈ 41.9 µM) |  |  |  |  |  |  |
| CC(C)=CCC/C(C)=C/CC/C(C)=C/CC/C(C)=C/CC/C(C)=C/CC/C(C)=C/CCC1(C)C=Cc2cc(O)ccc2O1 (centres unmarked) [Compound 6, 2-(hexaprenylmethyl)-2-methylchromenol] | > 20 | > 90 | > 90 | 15.9 (≈ 27.2 µM) | 41.4 (≈ 70.8 µM) |  |  |  |  |  |  |
| CC(C)=CCC/C(C)=C/CC/C(C)=C/CC/C(C)=C/CC/C(C)=C/CC/C(C)=C/CC/C(C)=C/CC/C(C)=C/Cc1cc(C(=O)O)ccc1O [Compound 7, 4-hydroxy-3-octaprenylbenzoic acid] | ~1 (≈ 1.46 µM) | 86.5 (≈ 127 µM) | > 90 | 5.6 (≈ 8.2 µM) | 13.1 (≈ 19.2 µM) |  |  |  |  |  |  |
| CC(C)=CCC/C(C)=C/CC/C(C)=C/CC/C(C)=C/Cc1cc(CC(=O)O)ccc1O [Compound 8, 4-hydroxy-3-tetraprenylphenylacetic acid] | 3.3 (≈ 7.77 µM) | > 90 | > 90 | > 90 | 0.6 (≈ 1.41 µM) |  |  |  |  |  |  |
| CC(C)=CCC/C(C)=C/CC/C(C)=C/CC/C=C(\C)CC/C=C(\C)CCC=C(C)C [Compound 10, squalene] | ~1 (≈ 2.43 µM) | 34.9 (≈ 84.9 µM) | > 90 | > 90 | 15 (≈ 36.6 µM) |  |  |  |  |  |  |
| CC(=O)O[C@H]1C=C2C(=O)OCC2[C@@]2(C)C1[C@@]1(C)CCCC(C)(C)C1C[C@@H]2OC(C)=O (some centres unmarked) [Compound 11, dorisenone D] | 0.43 (≈ 1.03 µM) | 3.93 (≈ 9.39 µM) | > 90 | > 90 | 2.47 (≈ 5.9 µM) | > 9 |  |  |  |  |  |
| CC(=O)O[C@H]1C=C2C(=O)OCC2[C@]2(C)CCC3C(C)(C)CCC[C@]3(C)C12 (stereo partly drawn) [Compound 12, 11β-acetoxyspongi-12-en-16-one] | ~1 (≈ 2.77 µM) | 3.32 (≈ 9.21 µM) | ~4 (≈ 11.1 µM) | 0.75 (≈ 2.08 µM) | 4.14 (≈ 11.5 µM) |  | 4.4 |  |  |  |  |
| CC(=O)O[C@H]1CC2[C@@]3(C)CCCC(C)(C)C3CC[C@@]2(C)C2CC=C3CO[C@@H](O)C3[C@]21C (stereo partly drawn) [Compound 13, 12-epi-deoxoscalarin] | 7.48 (≈ 17.4 µM) | 60.3 (≈ 140 µM) | 40.4 (≈ 93.9 µM) | > 90 | 55.2 (≈ 128 µM) |  |  |  |  |  |  |
| OCCc1c[nH]c2ccccc12 [Compound 14, tryptophol] | 5.08 (≈ 31.5 µM) | 63.5 (≈ 394 µM) | 49.4 (≈ 306 µM) | 9.6 (≈ 59.6 µM) | 5.89 (≈ 36.5 µM) |  |  | 8 |  |  |  |
| O=C(Cn1ccnc1[N+](=O)[O-])NCc1ccccc1 [benznidazole, reference compound] |  |  | 0.359 (≈ 1.38 µM) |  |  |  |  |  |  |  |  |
| CCN(CC)CCCC(C)Nc1ccnc2cc(Cl)ccc12 (centres unmarked) [chloroquine, reference compound] |  |  |  |  |  |  |  |  | 0.056 (≈ 0.175 µM) |  |  |
| Nc1nc(N)nc(Nc2ccc([As]3SCC(CO)S3)cc2)n1 (centres unmarked) [melarsoprol, reference compound] |  |  |  |  |  |  |  |  |  | 0.003 |  |
| CCCCCCCCCCCCCCCCOP(=O)([O-])OCC[N+](C)(C)C [miltefosine, reference compound] |  |  |  | 0.2 (≈ 0.491 µM) |  |  |  |  |  |  |  |
| COc1cc([C@@H]2c3cc4c(cc3[C@H](O)[C@H]3COC(=O)[C@H]23)OCO4)cc(OC)c1OC [podophyllotoxin, reference compound] |  |  |  |  |  |  |  |  |  |  | 0.004 (≈ 0.00965 µM) |
